Data on one molecule can be found in ChEMBL document CHEMBL4184100, “Discovery of 2-arylquinazoline derivatives as a new class of ASK1 inhibitors” (Bioorg Med Chem Lett, 2018).

The target of one data set is CYP3A4 (Homo sapiens, UniProt P08684). Description: Inhibition of CYP3A4 (unknown origin) at 10 uM relative to control. It counts as ADME.
Data set [1] can be described thus: Stability in human liver microsomes. It counts as ADME, microsome. To be noted: read-out: Stability. In general terms: Liver microsomes are vesicles of endoplasmic reticulum, rich in cytochrome P450 enzymes.
A short description of data set [2]: Solubility of the compound in phosphate buffered saline at pH 7.4. The format is physicochemical. Conditions: buffer.
The next data set concerns the target CYP2D6 (Homo sapiens, UniProt P10635). Description: Inhibition of CYP2D6 (unknown origin) at 10 uM relative to control. The format is ADME.
Data set [3] in a line: Stability in rat liver microsomes. The format is ADME, microsome. Conditions: read-out: Stability.
Data set [4] deals with T1, Mitogen-activated protein kinase kinase kinase 5 (Rattus norvegicus) (UniProt D3ZZH6).
T1 sequence (whole entry): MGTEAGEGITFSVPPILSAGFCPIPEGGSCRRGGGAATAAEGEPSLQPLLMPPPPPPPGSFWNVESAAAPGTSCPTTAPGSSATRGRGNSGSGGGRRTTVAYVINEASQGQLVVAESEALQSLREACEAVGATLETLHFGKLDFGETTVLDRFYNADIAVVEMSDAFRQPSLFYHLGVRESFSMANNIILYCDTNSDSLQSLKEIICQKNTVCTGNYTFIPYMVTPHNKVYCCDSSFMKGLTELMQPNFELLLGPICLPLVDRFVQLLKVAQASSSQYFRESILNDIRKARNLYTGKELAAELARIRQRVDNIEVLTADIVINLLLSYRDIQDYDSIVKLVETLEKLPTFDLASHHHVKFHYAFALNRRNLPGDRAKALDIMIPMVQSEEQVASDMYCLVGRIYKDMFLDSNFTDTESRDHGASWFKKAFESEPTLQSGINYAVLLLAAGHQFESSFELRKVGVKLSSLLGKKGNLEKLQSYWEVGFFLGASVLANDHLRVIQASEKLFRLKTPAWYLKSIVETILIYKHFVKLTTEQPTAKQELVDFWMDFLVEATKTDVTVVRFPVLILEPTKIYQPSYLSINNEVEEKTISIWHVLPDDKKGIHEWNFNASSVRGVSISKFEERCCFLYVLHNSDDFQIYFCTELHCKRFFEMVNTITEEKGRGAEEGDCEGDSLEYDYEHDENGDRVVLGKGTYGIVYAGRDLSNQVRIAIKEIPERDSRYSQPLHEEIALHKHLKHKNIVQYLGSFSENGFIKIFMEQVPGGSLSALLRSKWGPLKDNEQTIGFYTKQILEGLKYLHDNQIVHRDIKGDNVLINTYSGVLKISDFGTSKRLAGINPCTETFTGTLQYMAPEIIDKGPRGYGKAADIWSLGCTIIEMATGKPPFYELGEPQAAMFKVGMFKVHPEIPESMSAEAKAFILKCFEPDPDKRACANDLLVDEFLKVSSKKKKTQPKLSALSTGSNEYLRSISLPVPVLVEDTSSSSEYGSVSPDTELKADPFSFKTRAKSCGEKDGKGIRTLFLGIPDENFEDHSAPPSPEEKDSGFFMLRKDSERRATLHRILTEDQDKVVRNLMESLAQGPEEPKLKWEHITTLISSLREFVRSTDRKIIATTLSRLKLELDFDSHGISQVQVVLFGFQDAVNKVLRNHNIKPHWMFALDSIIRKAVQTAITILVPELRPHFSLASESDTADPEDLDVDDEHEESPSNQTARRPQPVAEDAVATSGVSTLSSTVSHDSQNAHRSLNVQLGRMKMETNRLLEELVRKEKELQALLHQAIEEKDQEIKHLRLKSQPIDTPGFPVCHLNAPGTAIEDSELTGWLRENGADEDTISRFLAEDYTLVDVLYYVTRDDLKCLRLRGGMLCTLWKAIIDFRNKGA
Description: Inhibition of […] in rat INS-1E cells assessed as reduction in TNFalpha-induced […] phosphorylation at ser207 residues up to 10 uM by immunoblot analysis. The format is cell-based. For orientation: A western blot detects proteins with antibodies after separation by electrophoresis.

The nature of data set [5]: Stability in mouse liver microsomes. It counts as ADME, microsome. Conditions: read-out: Stability.
Data set [6] addresses T2, Mitogen-activated protein kinase kinase kinase 5 (Homo sapiens, UniProt Q99683).
T2 sequence (Q99683 whole entry): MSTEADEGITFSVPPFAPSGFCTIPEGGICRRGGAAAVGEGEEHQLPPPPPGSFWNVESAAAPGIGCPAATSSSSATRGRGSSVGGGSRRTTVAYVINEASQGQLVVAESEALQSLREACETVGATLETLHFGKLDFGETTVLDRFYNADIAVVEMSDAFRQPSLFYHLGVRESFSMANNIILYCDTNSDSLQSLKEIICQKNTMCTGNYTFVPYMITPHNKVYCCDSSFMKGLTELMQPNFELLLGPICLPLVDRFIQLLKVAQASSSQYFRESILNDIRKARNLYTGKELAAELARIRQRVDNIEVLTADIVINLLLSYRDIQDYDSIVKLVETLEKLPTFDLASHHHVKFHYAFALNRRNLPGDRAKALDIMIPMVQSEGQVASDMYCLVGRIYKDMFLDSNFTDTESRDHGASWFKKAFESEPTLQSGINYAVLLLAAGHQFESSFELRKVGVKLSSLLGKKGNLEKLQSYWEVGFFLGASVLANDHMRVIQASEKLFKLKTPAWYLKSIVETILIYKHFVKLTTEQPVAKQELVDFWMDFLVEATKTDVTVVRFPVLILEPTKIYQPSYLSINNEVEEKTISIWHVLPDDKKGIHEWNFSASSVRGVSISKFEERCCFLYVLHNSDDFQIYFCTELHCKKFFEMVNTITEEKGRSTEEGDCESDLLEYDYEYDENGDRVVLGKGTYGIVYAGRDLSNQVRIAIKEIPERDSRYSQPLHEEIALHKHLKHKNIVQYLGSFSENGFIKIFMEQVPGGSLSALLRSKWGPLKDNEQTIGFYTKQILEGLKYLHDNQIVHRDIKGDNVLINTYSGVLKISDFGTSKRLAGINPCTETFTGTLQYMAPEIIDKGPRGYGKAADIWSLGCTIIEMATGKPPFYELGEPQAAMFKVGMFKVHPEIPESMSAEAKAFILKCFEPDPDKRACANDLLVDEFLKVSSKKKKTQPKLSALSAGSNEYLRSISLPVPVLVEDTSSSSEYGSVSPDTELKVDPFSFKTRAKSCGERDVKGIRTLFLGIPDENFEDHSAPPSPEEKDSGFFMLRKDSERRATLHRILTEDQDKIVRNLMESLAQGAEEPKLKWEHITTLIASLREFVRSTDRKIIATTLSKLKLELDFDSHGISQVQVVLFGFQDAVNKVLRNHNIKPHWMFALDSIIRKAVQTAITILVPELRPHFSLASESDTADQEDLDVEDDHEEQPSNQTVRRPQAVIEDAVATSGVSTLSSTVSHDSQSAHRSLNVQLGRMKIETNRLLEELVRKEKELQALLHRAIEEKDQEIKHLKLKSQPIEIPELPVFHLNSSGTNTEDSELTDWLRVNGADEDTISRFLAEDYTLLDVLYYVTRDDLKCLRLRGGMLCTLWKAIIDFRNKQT
Description: Inhibition of stress-activated full length recombinant human N-terminal GST-tagged ASK1 expressed in baculovirus expression system using MKK6 as substrate pretreated for 10 mins followed by substrate addition by Alphascreen assay. For orientation: In Alpha technology, singlet oxygen from a donor bead excites a nearby acceptor bead.

Another data set addresses T3, CYP1A2 (Homo sapiens, UniProt P05177).
T3 sequence (P05177 whole entry): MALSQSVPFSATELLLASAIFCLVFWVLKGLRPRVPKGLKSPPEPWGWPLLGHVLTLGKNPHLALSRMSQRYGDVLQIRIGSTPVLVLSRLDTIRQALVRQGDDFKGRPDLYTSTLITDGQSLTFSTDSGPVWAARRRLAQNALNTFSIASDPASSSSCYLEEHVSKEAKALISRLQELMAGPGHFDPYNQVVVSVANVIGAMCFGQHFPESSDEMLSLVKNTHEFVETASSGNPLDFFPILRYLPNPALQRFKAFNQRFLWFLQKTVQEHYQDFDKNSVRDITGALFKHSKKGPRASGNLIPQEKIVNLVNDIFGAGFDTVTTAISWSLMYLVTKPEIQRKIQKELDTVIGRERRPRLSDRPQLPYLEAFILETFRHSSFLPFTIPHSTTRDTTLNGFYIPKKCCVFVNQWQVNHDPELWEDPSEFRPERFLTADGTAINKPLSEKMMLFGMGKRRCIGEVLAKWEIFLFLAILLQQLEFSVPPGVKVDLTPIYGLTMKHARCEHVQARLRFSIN
Description: Inhibition of CYP1A2 (unknown origin) at 10 uM relative to control. The format is ADME.

A further data set concerns the target CYP2C9 (Homo sapiens, UniProt P11712). As to the kind of experiment: Inhibition of CYP2C9 (unknown origin) at 10 uM relative to control. The format is ADME.

pIC50: −log10 of the molar value. ≈ marks a conversion by molar mass, not a printed value. Calls of active or inactive are those of the source. No cut-off for these calls is given here.

Chain of CYP3A4 (P08684 whole entry): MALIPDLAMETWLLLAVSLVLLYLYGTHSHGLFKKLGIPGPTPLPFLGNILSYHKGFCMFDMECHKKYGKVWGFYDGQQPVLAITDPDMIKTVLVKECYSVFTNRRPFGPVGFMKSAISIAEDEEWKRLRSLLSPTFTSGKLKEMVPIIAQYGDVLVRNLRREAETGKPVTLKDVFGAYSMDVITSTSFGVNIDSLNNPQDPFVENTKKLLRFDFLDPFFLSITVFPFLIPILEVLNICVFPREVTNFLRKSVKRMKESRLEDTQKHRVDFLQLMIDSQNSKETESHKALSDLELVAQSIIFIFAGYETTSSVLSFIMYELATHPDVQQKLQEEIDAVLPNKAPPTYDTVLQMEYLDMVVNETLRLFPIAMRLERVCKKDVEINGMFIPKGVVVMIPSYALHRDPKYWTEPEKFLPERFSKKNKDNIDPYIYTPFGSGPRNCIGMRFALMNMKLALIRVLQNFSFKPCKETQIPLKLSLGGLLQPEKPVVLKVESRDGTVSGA
Chain of CYP2D6 (P10635 whole entry): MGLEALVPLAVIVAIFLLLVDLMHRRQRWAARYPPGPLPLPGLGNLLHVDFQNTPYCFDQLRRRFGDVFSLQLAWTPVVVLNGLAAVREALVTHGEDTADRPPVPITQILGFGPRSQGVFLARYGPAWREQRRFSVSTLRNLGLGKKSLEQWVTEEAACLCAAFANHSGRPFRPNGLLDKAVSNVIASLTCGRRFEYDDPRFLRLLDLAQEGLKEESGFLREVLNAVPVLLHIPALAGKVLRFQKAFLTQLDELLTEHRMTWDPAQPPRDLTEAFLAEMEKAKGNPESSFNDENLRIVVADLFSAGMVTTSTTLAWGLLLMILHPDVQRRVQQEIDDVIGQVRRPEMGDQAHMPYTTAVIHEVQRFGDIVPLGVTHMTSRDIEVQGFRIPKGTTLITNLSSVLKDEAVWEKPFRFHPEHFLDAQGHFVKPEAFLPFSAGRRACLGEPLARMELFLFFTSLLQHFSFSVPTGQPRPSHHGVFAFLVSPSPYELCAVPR
Chain of CYP2C9 (P11712 whole entry): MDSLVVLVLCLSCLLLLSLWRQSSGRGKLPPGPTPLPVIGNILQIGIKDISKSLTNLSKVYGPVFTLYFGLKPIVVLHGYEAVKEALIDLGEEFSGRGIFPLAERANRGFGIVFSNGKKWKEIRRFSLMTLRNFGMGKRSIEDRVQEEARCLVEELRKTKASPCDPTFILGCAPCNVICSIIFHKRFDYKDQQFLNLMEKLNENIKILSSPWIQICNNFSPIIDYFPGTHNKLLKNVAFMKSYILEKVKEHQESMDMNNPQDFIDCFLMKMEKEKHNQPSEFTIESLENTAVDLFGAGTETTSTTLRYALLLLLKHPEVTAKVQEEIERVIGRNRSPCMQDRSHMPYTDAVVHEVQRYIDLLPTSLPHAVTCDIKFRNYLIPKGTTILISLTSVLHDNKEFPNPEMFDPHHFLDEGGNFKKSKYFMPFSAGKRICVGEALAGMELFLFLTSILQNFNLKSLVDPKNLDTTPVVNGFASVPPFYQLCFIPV

Broadly, the inhibition is the relative decrease from the control value, in per cent. A word on the solubility: it is how much of the substance goes into solution per volume. Higher therefore signals much dissolved substance. Usually pIC50 stands for the negative decadic logarithm of the IC50, by convention in mol/L. Turning to `CC(=O)Nc1cccc(Nc2ncc3ccccc3n2)c1`, the inhibition at 10 µM against CYP3A4 was -13%; against CYP2D6, 13%; against CYP1A2, 94%; against CYP2C9 it was 20%. Moreover, the half-life in data set [1] is 6 min; in data set [3], 4 min; in data set [5], 2 min. The solubility in data set [2] came out at 100 µM (≈ 27.8 µg/mL). Moreover, in data set [4], the inhibition entry is “Active”. Also, the pIC50 in [6] was 6.05.
